Tests used:
SK-MEL-2 = test: In vitro anticancer assay (NCI panel), SK-MEL-2; format: cell-based; conditions: Homo sapiens; SK-MEL-2, melanoma
Procedure: (§1) Selected compounds were evaluated in vitro against the NCI's full panel of 60 cancer cell lines derived from nine cancer cell types, including: leukemia (CCRF-CEM, HL-60 (TB), K-562, MOLT-4, RPMI-8226, and SR); non-small cell lung cancer (A549/ATCC, EKVX, HOP-62, HOP-92, NCI-H226, NCI-H23, NCI-H322M, and NCI-H522); colon cancer (COLO 205, HCC-2998, HCT-116, HCT-15, HT29, KM12, and SW-620); CNS cancer (SF-268, SF-295, SF-539, SNB-19, SNB-75, and U251); melanoma (LOX IMVI, MALME-3M, M14, SK-MEL-2, SK-MEL-28, SK-MEL-5, UACC-62, and UACC-257); ovarian cancer (IGROV1, OVCAR-3, OVCAR-4, OVCAR-5, OVCAR-8, and SK-OV-3); renal cancer (786-0, A498, ACHN, CAKI-1, RXF 393, SN12C, TK-10, and UO-31); prostate cancer (PC-3 and DU-145); and breast cancer (MCF7, MCF7/ADR-RES, MDA-MB-231/ATCC, HS 578T, MDA-MB-435, MDA-N, and T-47D). For each compound, dose-response curves for each cell line were measured with five different drug concentrations, and the concentration causing 50% cell growth inhibition (GI50) compared with the control was calculated. The mean GI50 values of each tested compound for all the 60 tumor cell lines were also calculated.

MDA-MB-231/ATCC = test: In vitro anticancer assay (NCI panel), MDA-MB-231/ATCC; format: cell-based; conditions: Homo sapiens, breast cancer
Procedure: as §1

MCF7 = test: In vitro anticancer assay (NCI panel), MCF7; format: cell-based; conditions: Homo sapiens; MCF7, breast cancer
Procedure: as §1

DU-145 = test: In vitro anticancer assay (NCI panel), DU-145; format: cell-based; conditions: Homo sapiens; DU-145, prostate cancer
Procedure: as §1

[1] = tested on: NCI's full panel of 60 cancer cell lines; test: In vitro anticancer assay, all cell lines of the NCI panel; format: cell-based, human; conditions: Homo sapiens, mean values of over all cell lines tested; read-out: MG MID (mean GI50)
Procedure: as §1

OVCAR-8 = test: In vitro anticancer assay (NCI panel), OVCAR-8; format: cell-based; conditions: Homo sapiens; OVCAR-8, ovarian cancer
Procedure: as §1

SNB-19 = test: In vitro anticancer assay (NCI panel), SNB-19; format: cell-based; conditions: Homo sapiens; SNB-19, CNS cancer
Procedure: as §1

HT29 = test: In vitro anticancer assay (NCI panel), HT29; format: cell-based; conditions: Homo sapiens, HT-29; HT29, colon cancer
Procedure: as §1

SN12C = test: In vitro anticancer assay (NCI panel), SN12C; format: cell-based; conditions: Homo sapiens, renal cancer
Procedure: as §1

OVCAR-5 = test: In vitro anticancer assay (NCI panel), OVCAR-5; format: cell-based; conditions: Homo sapiens; OVCAR-5, ovarian cancer
Procedure: as §1

A549/ATCC = test: In vitro anticancer assay (NCI panel), A549/ATCC; format: cell-based; conditions: Homo sapiens, non-small cell lung cancer
Procedure: as §1

PC-3 = test: In vitro anticancer assay (NCI panel), PC-3; format: cell-based; conditions: Homo sapiens; PC-3, prostate cancer
Procedure: as §1

LOX IMVI = test: In vitro anticancer assay (NCI panel), LOX IMVI; format: cell-based; conditions: Homo sapiens, melanoma
Procedure: as §1

NCI-H460 = test: In vitro anticancer assay (NCI panel), NCI-H460; format: cell-based; conditions: Homo sapiens; NCI-H460, non-small cell lung cancer
Procedure: as §1

K-562 = test: In vitro anticancer assay (NCI panel), K-562; format: cell-based; conditions: Homo sapiens, K562; K-562, leukemia
Procedure: as §1

UACC-62 = test: In vitro anticancer assay (NCI panel), UACC-62; format: cell-based; conditions: Homo sapiens; UACC-62, melanoma
Procedure: as §1

HCT-116 = test: In vitro anticancer assay (NCI panel), HCT-116; format: cell-based; conditions: Homo sapiens; HCT-116, colon cancer
Procedure: as §1

OVCAR-3 = test: In vitro anticancer assay (NCI panel), OVCAR-3; format: cell-based; conditions: Homo sapiens; OVCAR-3, ovarian cancer
Procedure: as §1

COLO 205 = test: In vitro anticancer assay (NCI panel), COLO 205; format: cell-based; conditions: Homo sapiens; COLO 205, colon cancer
Procedure: as §1

786-0 = test: In vitro anticancer assay (NCI panel), 786-0; format: cell-based; conditions: Homo sapiens; 786-0, renal cancer
Procedure: as §1

MDA-MB-435 = test: In vitro anticancer assay (NCI panel), MDA-MB-435; format: cell-based; conditions: Homo sapiens; MDA-MB-435, breast cancer
Procedure: as §1

HOP-62 = test: In vitro anticancer assay (NCI panel), HOP-62; format: cell-based; conditions: Homo sapiens; HOP-62, non-small cell lung cancer
Procedure: as §1

SF-268 = test: In vitro anticancer assay (NCI panel), SF-268; format: cell-based; conditions: Homo sapiens; SF-268, CNS cancer
Procedure: as §1

SF-295 = test: In vitro anticancer assay (NCI panel), SF-295; format: cell-based; conditions: Homo sapiens; SF-295, CNS cancer
Procedure: as §1

HL-60 (TB) = test: In vitro anticancer assay (NCI 60 cell line panel), HL-60 (TB); format: cell-based; conditions: Homo sapiens, leukemia
Procedure: as §1

ACHN = test: In vitro anticancer assay (NCI panel), ACHN; format: cell-based; conditions: Homo sapiens, renal cancer
Procedure: as §1

SR = test: In vitro anticancer assay (NCI panel), SR; format: cell-based; conditions: Homo sapiens, leukemia
Procedure: as §1

telomerase = telomerase (Homo sapiens, UniProt O14746); test: Telomeric Repeat Amplification Protocol (TRAP) assay, cell-free; conditions: 0.5 μg total cell extract from H1299 human lung cancer cells, FIG. 1
telomerase, sequence (O14746 whole entry): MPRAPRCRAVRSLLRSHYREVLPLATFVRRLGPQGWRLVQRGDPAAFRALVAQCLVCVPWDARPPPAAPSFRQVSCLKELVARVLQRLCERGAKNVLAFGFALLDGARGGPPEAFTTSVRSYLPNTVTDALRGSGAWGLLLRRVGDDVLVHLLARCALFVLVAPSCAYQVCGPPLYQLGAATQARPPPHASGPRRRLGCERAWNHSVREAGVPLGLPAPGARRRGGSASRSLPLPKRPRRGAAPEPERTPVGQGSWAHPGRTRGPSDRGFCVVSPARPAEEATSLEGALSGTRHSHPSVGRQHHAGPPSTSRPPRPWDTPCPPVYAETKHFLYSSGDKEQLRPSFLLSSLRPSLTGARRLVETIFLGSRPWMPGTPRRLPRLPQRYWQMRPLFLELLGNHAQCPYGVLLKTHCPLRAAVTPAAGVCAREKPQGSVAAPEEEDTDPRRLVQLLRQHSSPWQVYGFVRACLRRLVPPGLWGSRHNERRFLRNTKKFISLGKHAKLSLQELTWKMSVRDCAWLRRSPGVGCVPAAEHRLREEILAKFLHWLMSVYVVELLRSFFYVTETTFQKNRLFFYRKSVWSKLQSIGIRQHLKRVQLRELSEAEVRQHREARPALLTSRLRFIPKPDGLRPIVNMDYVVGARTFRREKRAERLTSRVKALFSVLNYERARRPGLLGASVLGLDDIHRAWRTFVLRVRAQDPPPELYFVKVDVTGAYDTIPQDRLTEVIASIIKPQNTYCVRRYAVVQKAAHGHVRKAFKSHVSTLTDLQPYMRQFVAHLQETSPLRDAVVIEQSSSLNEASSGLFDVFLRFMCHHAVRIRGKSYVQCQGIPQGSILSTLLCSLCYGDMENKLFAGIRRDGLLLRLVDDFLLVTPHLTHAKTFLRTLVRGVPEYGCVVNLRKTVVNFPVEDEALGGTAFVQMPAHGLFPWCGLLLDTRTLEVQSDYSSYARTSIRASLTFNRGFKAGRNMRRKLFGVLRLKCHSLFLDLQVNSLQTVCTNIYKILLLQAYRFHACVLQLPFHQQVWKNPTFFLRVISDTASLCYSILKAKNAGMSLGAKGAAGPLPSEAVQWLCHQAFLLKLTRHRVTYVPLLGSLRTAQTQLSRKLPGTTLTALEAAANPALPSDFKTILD

[2] = tested on: human leukemia HL-60 cells; conditions: previous studies, read-out: GI50 (50% cell growth inhibition); cited from earlier work

Compound | GI50 (SK-MEL-2) [nM] | GI50 (MDA-MB-231/ATCC) [nM] | GI50 (MCF7) [nM] | melting point [°C] | GI50 (DU-145) [nM] | GI50 [1] [nM] | GI50 (OVCAR-8) [nM] | GI50 (SNB-19) [nM] | GI50 (HT29) [nM] | GI50 (SN12C) [nM] | GI50 (OVCAR-5) [nM] | GI50 (A549/ATCC) [nM] | GI50 (LOX IMVI) [nM] | GI50 (NCI-H460) [nM] | GI50 (K-562) [nM] | GI50 (UACC-62) [nM] | GI50 (HCT-116) [nM] | GI50 (OVCAR-3) [nM] | GI50 (COLO 205) [nM] | GI50 (786-0) [nM] | other results
Cl.OCCNCCNc1nc2ccccc2c2[nH]c3ccccc3c12 [Compound 9, 2-[2-(11H-Indolo[3,2-c]quinolin-6-ylamino)ethylamino]ethanol hydrochloride] | 2250 | 1240 | 1240 | 276 | 740 | 1070 | 810 | 2100 | 560 | 1260 | 580 | 980 | 440 | 1460 | 1550 | 2000 | 190 | 1310 | 1760 | 340 | GI50 (PC-3): 880 nM; GI50 (MDA-MB-435): 1460 nM; GI50 (HOP-62): 370 nM; GI50 (SF-268): 1360 nM; GI50 (SF-295): 1410 nM; GI50 (HL-60 (TB)): 1310 nM; GI50 (ACHN): 380 nM; GI50 (SR): 900 nM
Cl.c1ccc2c(c1)nc(NCCCNCCCNc1nc3ccccc3c3[nH]c4ccccc4c13)c1c3ccccc3[nH]c21 [Compound 8a, N,N-bis-[3-(11H-indolo[3,2-c]quinolin-6-yl)aminopropyl]amine hydrochloride] | 550 | 180 | 10 | 107 to 108 | 130 | 150 | 40 | 70 | 50 | 30 | 220 | 60 | 70 | 40 | 40 | 220 | 170 | 520 | 180 | 70 | concentration that completely inhibited telomerase activity (telomerase): approximately 0.02 nM; GI50 (PC-3): 360 nM; GI50 (MDA-MB-435): 850 nM; GI50 (HOP-62): 50 nM; GI50 (SF-268): 30 nM; GI50 (SF-295): 100 nM; GI50 (HL-60 (TB)): 40 nM; GI50 (ACHN): 60 nM; GI50 (SR): 30 nM
Cl.Nc1nc2ccccc2c2[nH]c3ccccc3c12 [Compound 7e, 11H-Indolo[3,2-c]quinolin-6-ylamine hydrochloride] | 1540 | 1220 | 1190 | 377 to 378 | 1940 | 1290 | 980 | 1100 | 510 | 1240 | 1840 | 1090 | 1050 | 410 | 620 | 13500 | 500 | 1420 | 1070 | 1120 | GI50 (MDA-MB-435): 940 nM; GI50 (HOP-62): 1130 nM; GI50 (SF-268): 1970 nM; GI50 (SF-295): 1030 nM; GI50 (HL-60 (TB)): 1980 nM; GI50 (ACHN): 480 nM; GI50 (SR): 640 nM
CN(C)CCNc1nc2ccccc2c2[nH]c3ccccc3c12 [IQDMA, N′-(11H-indolo[3,2-c]quinolin-6-yl)-N,N-dimethyl-ethane-1,2-diamine] | – | – | – | – | – | – | – | – | – | – | – | – | – | – | – | – | – | – | – | – | GI50 [2]: 1980 nM

From patent US8273760B2, “Indolo[3,2-c]quinoline compounds” (Kaohsiung Medical University, priority 2008, dated 2012)
